Source: patent publication US20230375530A1, “HUMAN BLOOD-BRAIN BARRIER MODEL FOR IMMUNOLOGICAL STUDIES” (WISCONSIN ALUMNI RESEARCH FOUNDATION, priority 2020, published 2023)

Assays:
[1] = system: matured hPSC-derived ECs (Passage 5); experiment: CHIR treatment in matured endothelium, immunocytochemistry; format: cell-based, human
Method: (§1) For extended culture, ECs were selectively dissociated and replated as previously described (Nishihara et al., 2020). Cells were incubated with Accutase until endothelial cells appeared round, typically 2-3 min at 37° C. The plate was tapped to release the ECs while SMLCs remained attached, and the EC-enriched cell suspension transferred to 4× volume of DMEM/F-12 and centrifuged for 5 min, 200×g. Cells were resuspended in hECSR medium and seeded on a new collagen IV-coated plate at approximately 3×10^4 cells/cm^2. hECSR medium was replaced every other day until confluent (typically 6 days). The selective dissociation and seeding described above was repeated, and hECSR medium was again replaced every other day until confluent (typically 6 days). We denote this time point “Passage 3.” In one experiment, these steps were repeated for another two passages. Except where indicated, CHIR 99021 or vehicle (DMSO) was included in the hECSR medium for the entire duration of culture.
Immunocytochemistry was performed in 24-well plates. […]
Images were analyzed using FIJI (ImageJ) software. For epifluorescence images, 5 fields (20×) were analyzed per well, with 3-4 wells per treatment condition. For quantification of cell number, EC colonies were manually outlined, and the Analyze Particles function was used to estimate the number of nuclei within the EC colonies. Nuclei outside the EC colonies were manually counted. EC purity (% EC) was calculated as the number of nuclei within EC colonies relative to total nuclei. To estimate % GLUT-1^+ ECs, cells within the EC colonies with membrane-localized GLUT-1 immunoreactivity (e.g., arrowheads in FIG. 24B) were manually counted. To estimate % Ki67^+ ECs, cells within the EC colonies with at least one nuclear-localized Ki67 punctum were manually counted. For quantification of fluorescence intensity in epifluorescence images, EC colonies were manually outlined, and the Measure function was used to obtain the mean fluorescence intensity for each image channel (fluorophore). A cell-free area of the plate was similarly quantified for background subtraction. […]

[2] = system: hPSC-derived Passage 1 and Passage 3 ECs; experiment: Western blotting of DMSO- or CHIR-treated ECs; format: cell-based, human
Method: as §1
To enrich samples from Passage 1 cultures for ECs, the Accutase-based selective dissociation method described above was employed. Dissociated cells were centrifuged for 5 min, 200×g, and resulting cell pellets were lysed in RIPA buffer (Rockland Immunochemicals, Pottstown, PA) supplemented with 1× Halt Protease Inhibitor Cocktail (Thermo Scientific). Passage 3 cells were lysed with the above buffer directly on plates. Lysates were centrifuged at 4° C. for 5 min, 14,000×g, and protein concentration in supernatants quantified using the Pierce BCA Protein Assay Kit (Thermo Scientific). Equal amounts of protein were diluted to equal volume with water, mixed with sample buffer, and heated at 95° C. for 5 min, except lysates intended for GLUT-1 Western blotting, which were not heated. Samples were resolved on 4-12% Tris-Glycine gels and transferred to nitrocellulose membranes. Membranes were blocked for 1 h in tris-buffered saline plus 0.1% Tween-20 (TBST) supplemented with 5% non-fat dry milk. Primary antibodies (see Table 6 for antibody information) diluted in TBST plus 5% non-fat dry milk were added to membranes and incubated overnight at 4° C. on a rocking platform. Membranes were washed five times with TBST. Secondary antibodies (see Table 6 for antibody information) diluted in TBST were added to membranes and incubated for 1 h at room temperature on a rocking platform, protected from light. Membranes were washed five times with TBST and imaged using an Odyssey 9120 (LI-COR, Lincoln, NE). Band intensities were quantified using Image Studio software (LI-COR).

Compound: Cc1c[nH]c(-c2cnc(NCCNc3ccc(C#N)cn3)nc2-c2ccc(Cl)cc2Cl)n1 [CHIR, CHIR 99021]
- increase in GLUT-1 abundance ([1]; CHIR for 6 days after 4 passages, vs DMSO): approximately 1.5 fold
- EC number ([1]; CHIR in matured ECs): slight decrease in EC number
- claudin-5 expression ([1]; CHIR in matured ECs): variable effects
- PLVAP reduction in Western blots ([2]; Passage 1 ECs): not apparent
- GLUT-1 and claudin-5 in Western blots ([2]; Passage 1 and Passage 3): upregulation of GLUT-1 and claudin-5
- LSR expression ([2]; Passage 1 and Passage 3 ECs): strong increase in LSR expression
- PLVAP in Western blots ([2]; Passage 3 ECs, CHIR vs controls): robust downregulation of PLVAP
